Here are results for one compound from patent publication US20080286809A1, “Methods” (MEDICAL RESEARCH COUNCIL, priority 2005, published 2008).

The assay addresses T1, WNK1 (Homo sapiens, UniProt Q9H4A3).
T1 construct: made in house
In words: ELISA assay for inhibitors of WNK activity: anti-phospho-SPAK-S373 detection of OSR1(D164A) phosphorylation. As to conditions: non-radioactive ELISA; immobilised OSR1(D164A) substrate; anti-phospho-SPAK-S373 antibody; absorbance readout; read-out: IC50, Hypericin Inhibition of WNK1. The class given is biochemical. The protocol: An example of a non-radioactive assay, suitable for screening of small drug-like compound libraries, has been developed using anti-phospho-SPAK antibodies to detect phosphorylation of WNK substrates SPAK or OSR1 in an ELISA format.
Anti-phospho-SPAK-S373 and anti-phospho-SPAK-T233 were anti-phospho-peptide antibodies raised in sheep for use in western blotting. They were evaluated for use in the ELISA format. Anti-phospho-SPAK-S373 was active in the ELISA with native OSR1 protein. SPAK and OSR1 are interchangeable in the assay as the amino acid sequences are very similar overall and have the same sequence flanking the phosphorylation sites. […] Wild type OSR1 had significant autophosphorylation/ATP hydrolytic activity, and could lead to depletion of substrates during the time course of the reaction.
The assay was performed in maxisorp (Nunc) 384-clear plates. OSR1(D164A), 30 ng/well, was coated overnight at 4° C. in Tris buffered saline (TBS) pH 7.4. […] Plates were read on an absorbance reader at […]. […]
The assay was tolerant to a wide range of ATP concentrations (1-1000 μM) and 1% DMSO (compound storage solvent). Compound interference by autofluorescence, quenching or absorbance is minimised as it is heterogeneous involving several wash steps. […]

Each structure is given as a SMILES string.

T1 sequence (Q9H4A3 whole entry): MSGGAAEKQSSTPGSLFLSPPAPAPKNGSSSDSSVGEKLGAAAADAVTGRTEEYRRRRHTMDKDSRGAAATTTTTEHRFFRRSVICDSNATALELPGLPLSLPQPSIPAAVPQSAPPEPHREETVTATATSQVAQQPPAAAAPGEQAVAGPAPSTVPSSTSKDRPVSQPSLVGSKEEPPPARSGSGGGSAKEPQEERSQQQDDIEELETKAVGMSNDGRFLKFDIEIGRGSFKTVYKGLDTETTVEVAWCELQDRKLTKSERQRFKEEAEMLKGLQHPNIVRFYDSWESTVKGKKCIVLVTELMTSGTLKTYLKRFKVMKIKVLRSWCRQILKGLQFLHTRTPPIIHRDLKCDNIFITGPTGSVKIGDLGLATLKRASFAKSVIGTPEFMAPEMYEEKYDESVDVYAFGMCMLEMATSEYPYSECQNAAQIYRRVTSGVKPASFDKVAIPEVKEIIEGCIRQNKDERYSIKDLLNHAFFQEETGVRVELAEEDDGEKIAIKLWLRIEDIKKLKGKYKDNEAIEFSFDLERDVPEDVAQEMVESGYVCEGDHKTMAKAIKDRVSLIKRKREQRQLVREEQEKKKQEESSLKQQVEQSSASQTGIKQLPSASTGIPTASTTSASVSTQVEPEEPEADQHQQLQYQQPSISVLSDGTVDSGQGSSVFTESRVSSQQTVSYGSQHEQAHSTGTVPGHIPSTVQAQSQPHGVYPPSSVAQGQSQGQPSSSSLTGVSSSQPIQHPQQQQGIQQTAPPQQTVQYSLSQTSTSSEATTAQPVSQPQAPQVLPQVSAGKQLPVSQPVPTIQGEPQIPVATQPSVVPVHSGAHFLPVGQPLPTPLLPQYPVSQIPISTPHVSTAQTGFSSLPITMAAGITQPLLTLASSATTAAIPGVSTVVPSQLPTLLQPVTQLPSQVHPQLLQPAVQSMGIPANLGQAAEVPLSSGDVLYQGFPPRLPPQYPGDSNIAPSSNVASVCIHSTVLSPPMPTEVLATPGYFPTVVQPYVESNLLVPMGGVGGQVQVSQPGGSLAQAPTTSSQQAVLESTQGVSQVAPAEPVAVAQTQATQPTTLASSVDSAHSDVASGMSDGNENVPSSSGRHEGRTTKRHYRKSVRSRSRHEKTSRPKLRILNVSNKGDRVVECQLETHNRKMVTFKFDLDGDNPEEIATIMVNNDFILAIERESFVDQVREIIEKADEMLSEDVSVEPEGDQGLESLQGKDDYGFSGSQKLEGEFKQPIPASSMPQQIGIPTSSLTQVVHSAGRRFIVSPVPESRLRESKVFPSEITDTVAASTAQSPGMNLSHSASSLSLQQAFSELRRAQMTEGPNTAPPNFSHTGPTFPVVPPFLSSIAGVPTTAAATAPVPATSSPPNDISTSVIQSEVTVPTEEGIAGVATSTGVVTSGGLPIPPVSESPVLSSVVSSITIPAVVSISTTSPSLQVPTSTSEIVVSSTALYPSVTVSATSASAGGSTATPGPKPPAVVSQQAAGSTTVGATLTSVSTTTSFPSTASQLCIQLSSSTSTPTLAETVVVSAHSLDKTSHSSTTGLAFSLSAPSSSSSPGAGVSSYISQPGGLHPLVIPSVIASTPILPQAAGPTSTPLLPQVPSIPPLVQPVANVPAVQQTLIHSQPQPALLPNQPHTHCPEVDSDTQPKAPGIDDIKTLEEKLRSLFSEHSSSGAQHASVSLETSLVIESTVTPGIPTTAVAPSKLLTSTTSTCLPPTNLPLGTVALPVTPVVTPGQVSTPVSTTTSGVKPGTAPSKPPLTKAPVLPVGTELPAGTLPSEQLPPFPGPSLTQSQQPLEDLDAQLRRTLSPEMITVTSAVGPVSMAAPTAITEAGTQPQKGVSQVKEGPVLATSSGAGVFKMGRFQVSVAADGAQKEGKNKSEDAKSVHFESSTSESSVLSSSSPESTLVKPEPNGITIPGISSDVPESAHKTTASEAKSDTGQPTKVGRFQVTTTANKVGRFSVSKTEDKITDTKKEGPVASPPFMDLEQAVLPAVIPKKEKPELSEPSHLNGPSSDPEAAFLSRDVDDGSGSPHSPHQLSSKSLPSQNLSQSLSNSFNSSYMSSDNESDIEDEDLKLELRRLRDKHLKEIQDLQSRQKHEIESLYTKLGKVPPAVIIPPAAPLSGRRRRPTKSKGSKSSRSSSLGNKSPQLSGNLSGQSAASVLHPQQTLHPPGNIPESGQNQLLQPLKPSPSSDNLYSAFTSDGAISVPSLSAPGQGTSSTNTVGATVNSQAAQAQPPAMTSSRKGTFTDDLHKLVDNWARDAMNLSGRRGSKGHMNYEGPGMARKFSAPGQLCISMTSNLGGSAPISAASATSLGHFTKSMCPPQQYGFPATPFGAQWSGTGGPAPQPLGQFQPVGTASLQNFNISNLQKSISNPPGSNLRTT

Turning to `Cc1cc(O)c2c(=O)c3c(O)cc(O)c4c5c(O)cc(O)c6c(=O)c7c(O)cc(C)c8c1c2c(c34)c(c78)c65` [Hypericin], the half-maximal inhibitory concentration (IC50) is 1500 nM.
